According to the supplement of paper PMC10627819:

Columns and labels:
Test in all cases: fitness (endpoint OD595 vs no drug) (fraction); higher = more growth
S. aureus Newman = tested on: S. aureus Newman
Outline: (§1)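 Bacterial fitness was scored as optical density at the stationary-phase transition relative to the robust mean of no-drug control wells. Scores are capped at 1. The growth data were OD595 readings every 30 min for 14 h at 37 °C, background-subtracted against the first reading, from 384-well plates inoculated at OD595 0.01 in TSB, LB Lennox or CY.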

S. pneumoniae D39V = tested on: S. pneumoniae D39V
Outline: as §1

B. subtilis 168 = tested on: B. subtilis 168
Outline: as §1
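Also: OD595 on entry to stationary phase over no-drug wells; at most 1.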

C[C@@H]1O[C@@H]1P(=O)(O)O [Fosfomycin] + CC1(C)S[C@@H]2[C@H](NC(=O)Cc3ccccc3)C(=O)N2[C@H]1C(=O)O [Penicillin G]
fitness, S. aureus Newman
Conditions | first compound 0.781 µg/mL | first compound 1.562 µg/mL | first compound 3.124 µg/mL
partner 0.0195 µg/mL | 0.582 | 0.498 | 0.167
partner 0.039 µg/mL | 0.583 | 0.516 | 0.171
partner 0.078 µg/mL | 0.54 | 0.508 | 0.153

CO/N=C(\C(=O)N[C@@H]1C(=O)N2C(C(=O)O)=C(COC(N)=O)CS[C@H]12)c1ccco1 [Cefuroxime] + CO/N=C(\C(=O)N[C@@H]1C(=O)N2C(C(=O)[O-])=C(C[N+]3(C)CCCC3)CS[C@H]12)c1csc(N)n1 [Cefepime]
fitness, S. aureus Newman, one replicate
Conditions | first compound 0.04875 µg/mL | first compound 0.0975 µg/mL | first compound 0.195 µg/mL
partner 0.125 µg/mL | 0.984 | 0.841 | 0.925
partner 0.25 µg/mL | 0.871 | 0.821 | 0.922
partner 0.5 µg/mL | 0.88 | 0.731 | 0.864

CN(C)[C@@H]1C(O)=C(C(N)=O)C(=O)[C@@]2(O)C(O)=C3C(=O)c4c(O)ccc(Cl)c4[C@@](C)(O)[C@H]3C[C@@H]12 [Chlortetracycline] + CCC(C)C1C(=O)NC(=C)C(=O)NC(C(=O)NC(CSCC(C(=O)N1)NC(=O)/C(=C/C)/NC(=O)C(C(C)CC)N)C(=O)NC2C(SCC(NC(=O)CNC(=O)C3CCCN3C2=O)C(=O)NC(CCCCN)C(=O)NC4C(SCC(NC(=O)CNC(=O)C(NC(=O)C(NC(=O)C(NC(=O)CNC4=O)C)CC(C)C)CCSC)C(=O)NC(CC(=O)N)C(=O)NC(CCSC)C(=O)NC(CCCCN)C(=O)NC5C(SCC6C(=O)NC(C(=O)NC(CSC(C(C(=O)N6)NC(=O)C(NC5=O)C)C)C(=O)NC(CO)C(=O)NC(C(C)CC)C(=O)NC(CC7=CN=CN7)C(=O)NC(C(C)C)C(=O)NC(=C)C(=O)NC(CCCCN)C(=O)O)CC8=CN=CN8)C)C)C)CC(C)C [Nisin]
main component drawn
Conditions | fitness
B. subtilis 168, first compound 0.0475 µg/mL, partner 0.5 µg/mL | 0.902
B. subtilis 168, first compound 0.0475 µg/mL, partner 1 µg/mL | 0.849
B. subtilis 168, first compound 0.0475 µg/mL, partner 2 µg/mL | 0.452
B. subtilis 168, first compound 0.095 µg/mL, partner 0.5 µg/mL | 0.794
B. subtilis 168, first compound 0.095 µg/mL, partner 1 µg/mL | 0.733
B. subtilis 168, first compound 0.095 µg/mL, partner 2 µg/mL | 0.387
B. subtilis 168, first compound 0.19 µg/mL, partner 0.5 µg/mL | 0.605
B. subtilis 168, first compound 0.19 µg/mL, partner 1 µg/mL | 0.454
B. subtilis 168, first compound 0.19 µg/mL, partner 2 µg/mL | 0.116
S. pneumoniae D39V, first compound 0.012 µg/mL, partner 0.4275 µg/mL | 0.973
S. pneumoniae D39V, first compound 0.012 µg/mL, partner 0.855 µg/mL | 0.804
S. pneumoniae D39V, first compound 0.012 µg/mL, partner 1.71 µg/mL | 0.0763
S. pneumoniae D39V, first compound 0.024 µg/mL, partner 0.4275 µg/mL | 0.909
S. pneumoniae D39V, first compound 0.024 µg/mL, partner 0.855 µg/mL | 0.526
S. pneumoniae D39V, first compound 0.024 µg/mL, partner 1.71 µg/mL | 0.0832
S. pneumoniae D39V, first compound 0.048 µg/mL, partner 0.4275 µg/mL | 0.766
S. pneumoniae D39V, first compound 0.048 µg/mL, partner 1.71 µg/mL | 0.0976
S. pneumoniae D39V, first compound 0.375 µg/mL, partner 1.6 µg/mL | 0.014
S. pneumoniae D39V, first compound 0.375 µg/mL, partner 3.2 µg/mL | 0.0066
S. pneumoniae D39V, first compound 0.375 µg/mL, partner 6.4 µg/mL | 0.0151
S. pneumoniae D39V, first compound 0.75 µg/mL, partner 1.6 µg/mL | 0.0251
S. pneumoniae D39V, first compound 0.75 µg/mL, partner 3.2 µg/mL | 0.0392
S. pneumoniae D39V, first compound 0.75 µg/mL, partner 6.4 µg/mL | 0.0332
S. pneumoniae D39V, first compound 1.5 µg/mL, partner 1.6 µg/mL | 0.0279
S. pneumoniae D39V, first compound 1.5 µg/mL, partner 3.2 µg/mL | 0.0271
S. pneumoniae D39V, first compound 1.5 µg/mL, partner 6.4 µg/mL | 0.064

fitness, B. subtilis 168, one replicate, main component drawn
Conditions | partner 1.25 µg/mL | partner 1.6 µg/mL | partner 2.5 µg/mL | partner 3.2 µg/mL | partner 4 µg/mL | partner 5 µg/mL | partner 6.4 µg/mL | partner 8 µg/mL | partner 16 µg/mL
first compound 0.0475 µg/mL | 0.902 | 0.609 | 0.642 | 0.0268 | 0.0247 | 0.0756 | 0.0534 | 0.006 | 0
first compound 0.095 µg/mL | 0.805 | 0.49 | 0.607 | 0.0306 | 0.0278 | 0.0684 | 0.0417 | 0.0191 | 0.0123
first compound 0.19 µg/mL | 0.686 | 0.0405 | 0.338 | 0.0435 | 0.0329 | 0.0442 | 0.0404 | 0.0227 | 0.0213

C[C@H]1c2cccc(O)c2C(=O)C2=C(O)[C@]3(O)C(=O)C(C(N)=O)=C(O)[C@@H](N(C)C)[C@@H]3[C@@H](O)[C@@H]21 [Doxycycline] + CC1=C(C(=O)O)N2C(=O)[C@@H](NC(=O)[C@H](N)c3ccccc3)[C@H]2SC1 [Cephalexin]
fitness, one replicate
Conditions | partner 0.125 µg/mL | partner 0.25 µg/mL | partner 0.5 µg/mL | partner 1 µg/mL | partner 2 µg/mL | partner 4 µg/mL
B. subtilis 168, first compound 0.02 µg/mL | – | – | – | ≥ 1 | – | –
B. subtilis 168, first compound 0.04 µg/mL | – | – | – | 0.84 | – | –
B. subtilis 168, first compound 0.08 µg/mL | – | – | – | 0.793 | – | –
S. pneumoniae D39V, first compound 0.003875 µg/mL | – | – | – | 0.601 | 0.0976 | 0.0088
S. pneumoniae D39V, first compound 0.00775 µg/mL | – | – | – | 0.722 | 0.186 | 0.0118
S. pneumoniae D39V, first compound 0.0155 µg/mL | 0.902 | 0.867 | 0.879 | – | – | –
S. pneumoniae D39V, first compound 0.031 µg/mL | 0.916 | 0.885 | 0.887 | 0.756 | 0.634 | 0.0444
S. pneumoniae D39V, first compound 0.062 µg/mL | 0.807 | 0.808 | 0.809 | 0.667 | 0.51 | 0.0551

Conditions | fitness
B. subtilis 168, first compound 0.02 µg/mL, partner 0.125 µg/mL | 0.834
B. subtilis 168, first compound 0.02 µg/mL, partner 0.25 µg/mL | 0.871
B. subtilis 168, first compound 0.02 µg/mL, partner 0.5 µg/mL | 0.907
B. subtilis 168, first compound 0.04 µg/mL, partner 0.125 µg/mL | 0.702
B. subtilis 168, first compound 0.04 µg/mL, partner 0.25 µg/mL | 0.771
B. subtilis 168, first compound 0.04 µg/mL, partner 0.5 µg/mL | 0.711
B. subtilis 168, first compound 0.08 µg/mL, partner 0.125 µg/mL | 0.413
B. subtilis 168, first compound 0.08 µg/mL, partner 0.25 µg/mL | 0.375
S. pneumoniae D39V, first compound 0.0155 µg/mL, partner 1 µg/mL | 0.873
S. pneumoniae D39V, first compound 0.0155 µg/mL, partner 2 µg/mL | 0.474
S. pneumoniae D39V, first compound 0.0155 µg/mL, partner 4 µg/mL | 0.0211
